These results are taken from patent US20060183043A1, “Electrophotographic photoreceptor containing pyridine-substituted asymmetric naphthalenetetracarboxylic acid diimide derivatives and electrophotographic imaging apparatus” (Samsung Electronics Co., Ltd., priority 2005, published 2006).

The nature of the data set: Solubility test (amount of organic solvent needed to completely dissolve 1 g of compound). Format: physicochemical. As to conditions: 1 g compound, room temperature, solvent added drop by drop with stirring. As to the method: 1 g of a compound to be tested was poured into a test tube with stirring at room temperature and solvents listed in Table 1 were slowly added drop by drop. The amounts of the solvents required to completely dissolve 1 g of the tested compound were measured.

As to `CCc1ccc(C)nc1N1C(=O)c2ccc3c4c(ccc(c24)C1=O)C(=O)N(c1nc(C)ccc1CC)C3=O` [Compound (40)], the “Amount of solvent required to completely dissolve 1 g of the tested compound: Acetone” value is reported as 282 g, the “Amount of solvent required to completely dissolve 1 g of the tested compound: Chloroform” value is reported as 8.6 g, the “Amount of solvent required to completely dissolve 1 g of the tested compound: Methylene chloride” value worked out at 10.2 g and the “Amount of solvent required to completely dissolve 1 g of the tested compound: Tetrahydrofuran” value stood at 9.7 g.
For `CCc1ccc(C)nc1N1C(=O)c2ccc3c4c(ccc(c24)C1=O)C(=O)N(c1ccccc1)C3=O` [Compound (1)], in that order: 130 g, 5.3 g, 6.5 g and 5.8 g.
